The source of these data is US12528790B2, “Amide derivative having antiviral activity” (Shionogi & Co., Ltd., priority 2020, dated 2026).

Broadly, the EC50 is the concentration at which the effect is half-maximal.

The first assay concerns RSV A2 strain. Description: In vitro CPE (CytoPathic Effect) inhibition effect evaluation test, RSV type A. Type of assay: cell-based. Particulars: human respiratory syncytial virus, HEp-2. As for the experimental part: The test sample is diluted in advance to an appropriate concentration with DMSO, and 3-fold series of serial dilutions were prepared on a 384-well plate (0.32 μL/well). HEp-2 cells (CCL-23; ATCC) adjusted at appropriate number (2.4×10^5 cells/mL) in 2% FBS E-MEM (prepared by adding kanamycin and FBS to Eagle's Minimum Essential Medium; Invitrogen) were added at 12.5 μL/well to the 384-well plate previously aliquoted with the test samples. The RSV A2 strain was diluted to an appropriate concentration in a culture medium and added to the 384-well plate containing the test sample at 12.5 μL/well. The culture medium was added additionally to the 384-well plate, and the test was started with 50 μL/well. Control wells were prepared with only virus-free culture medium. The plate was incubated in a 5% CO2 incubator at 37° C. for 4 days, and the plate was then placed at room temperature for 30 minutes. CellTiter-Glo (registered trademark) 2.0 assay (Promega) was added at 15 μL/well, mixed for 30 seconds, and the plate was placed for approximately 1 hour. The luminescent signal was then measured by EnVision (PerkinElmer). The inhibitory effect of the test agents on RSV-induced CPE was calculated as 0% and 100% inhibition rate for each sample concentration based on the level of remaining viable cells by CellTiter-Glo (registered trademark) 2.0, with the EC50 value for each compound calculated by nonlinear regression as the concentration that inhibits RSV-induced CPE by 50%. In the case of evaluation against RSV type B, RSV B (Wash/18537 strain) was infected in the same manner as the type A, cultured for 5 days, and quantitated in the same manner as for the A2 strain.
In general terms: Cytopathic effects are the visible damage that an infection or toxin causes in cultured cells.
Turning to `COc1cc(COc2ccc3c(c2)CCN3c2ncc(C(=O)NC3(C(=O)O)CCCCC3)c(C(F)(F)F)n2)ccn1` [Compound I-27], the EC50 is 10 to 100 nM. On the same count and under the same terms, the same measure for `CN1CCC2(CC1)CN(c1ncc(C(=O)NC3(C(=O)O)CCCCC3)c(C(F)(F)F)n1)c1ccc(OCCC3CCOCC3)cc12` [Compound I-62]: below 10 nM; for `O=C(NC1(C(=O)O)CCCCC1)c1cnc(N2CC3(CCN(C4CCC4)CC3)c3cc(OCCC4CCOCC4)ccc32)nc1C(F)(F)F` [Compound I-63]: below 10 nM.

The assay is the same for the next values; noted with them: human respiratory syncytial virus; inhibitory effect against RSV type A (RSV A2 strain), HEp-2 cells, CPE inhibition; read-out: EC50.
Turning to `O=C(NC1(C(=O)O)C2CC3CC(C2)CC1C3)c1cnc(-c2cn(C3CCC(F)(F)CC3)c3cc(OC4CCC(N5CCC(F)(F)C5)CC4)ccc23)nc1C(F)(F)F` (single isomer, unassigned) [Compound I-427], the concentration for a half-maximal effect (EC50) was below 10 nM. On the same count and under the same terms, the same measure for `CC(=O)OCCCCOc1ccc2c(c1)CCN2c1ncc(C(=O)NC2(C(=O)O)CCCCC2)c(C(F)(F)F)n1` [Compound I-6]: 10 to 100 nM. On the same count and under the same terms, as for `O=C(NC1(C(=O)O)CCCCC1)c1cnc(N2CC3(CC3)c3cc(Br)ccc32)nc1C(F)(F)F` [Compound I-10], the figure is 100 to 5000 nM; as for `COCCCCOc1ccc2c(c1)CCN2c1ncc(C(=O)NC2(C(=O)O)CC3CCC2C3)c(C(F)(F)F)n1` (stereo not shown) [Compound I-11], below 10 nM; as for `O=C(NC1(C(=O)O)CC2CCC1C2)c1cnc(N2CCc3cc(OCCC4CCOCC4)ccc32)nc1C(F)(F)F` (stereo not shown) [Compound I-12], below 10 nM. On the same count and under the same terms, as for `COc1cccc(COc2ccc3c(c2)CCN3c2ncc(C(=O)NC3(C(=O)O)CC4CCC3C4)c(C(F)(F)F)n2)c1` (stereo not shown) [Compound I-13], the figure is below 10 nM; as for `COc1cccc(COc2ccc3c(c2)CCN3c2ncc(C(=O)NC3(C(=O)O)CCOCC3)c(C(F)(F)F)n2)c1` [Compound I-14], 100 to 5000 nM; as for `COc1ccc(COc2ccc3c(c2)CCN3c2ncc(C(=O)NC3(C(=O)O)CCOCC3)c(C(F)(F)F)n2)cc1` [Compound I-15], 10 to 100 nM. `O=C(NC1(C(=O)O)CCC(F)(F)CC1)c1cnc(N2CCc3cc(OCCC4CCOCC4)ccc32)nc1C(F)(F)F` [Compound I-20]: the EC50 lay within 10 to 100 nM. For `COCCCCOc1ccc2c(c1)CCN2c1ncc(C(=O)NC2(C(=O)O)C3CC4CC(C3)CC2C4)c(C(F)(F)F)n1` (stereo not shown) [Compound I-22], the EC50 is below 10 nM. `COc1cccc(/C=C/c2ccc3c(c2)CCN3c2ncc(C(=O)NC3(C(=O)O)CCCCC3)c(C(F)(F)F)n2)c1` [Compound I-24]: the EC50 fell in the range of 10 to 100 nM.

`COc1ccc(CCc2ccc3c(c2)CCN3c2ncc(C(=O)NC3(C(=O)O)CCCCC3)c(C(F)(F)F)n2)cc1` [Compound I-25]: the EC50 is 10 to 100 nM.

Consider `COc1cccc(CCc2ccc3c(c2)CCN3c2ncc(C(=O)NC3(C(=O)O)CCCCC3)c(C(F)(F)F)n2)c1` [Compound I-26], for which the EC50 lay within 10 to 100 nM. Turning to `Cc1nc(COc2ccc3c(c2)CCN3c2ncc(C(=O)NC3(C(=O)O)CCCCC3)c(C(F)(F)F)n2)cs1` [Compound I-28], the EC50 lay within 10 to 100 nM. On the same count and under the same terms, as for `COc1cc(COc2ccc3c(c2)CCN3c2ncc(C(=O)NC3(C(=O)O)CCCCC3)c(C(F)(F)F)n2)cc(OC)c1` [Compound I-29], the figure is below 10 nM; as for `COc1cncc(COc2ccc3c(c2)CCN3c2ncc(C(=O)NC3(C(=O)O)CCCCC3)c(C(F)(F)F)n2)c1` [Compound I-30], 10 to 100 nM.

Take `CC(C)(C)OC(=O)N1CCC(Oc2ccc3c(c2)CCN3c2ncc(C(=O)NC3(C(=O)O)CCCCC3)c(C(F)(F)F)n2)CC1` [Compound I-32]: the EC50 was in the range of 10 to 100 nM.

For the compound `O=C(NC1(C(=O)O)CCCCC1)c1cnc(N2CCc3cc(OC4CCN(CC(F)(F)F)CC4)ccc32)nc1C(F)(F)F` [Compound I-34], the EC50 was below 10 nM.

In the case of `CN(C)S(=O)(=O)NC(=O)C1(NC(=O)c2cnc(N3CCc4cc(OCCC5CCOCC5)ccc43)nc2C(F)(F)F)CCCCC1` [Compound I-35], the EC50 lay within 10 to 100 nM. Same read-out and setting: the same measure for `Cc1csc(COc2ccc3c(c2)CCN3c2ncc(C(=O)NC3(C(=O)O)CCCCC3)c(C(F)(F)F)n2)n1` [Compound I-37]: below 10 nM; for `O=C(NC1(C(=O)NS(=O)(=O)N2CCOCC2)CCCCC1)c1cnc(N2CCc3cc(OCCC4CCOCC4)ccc32)nc1C(F)(F)F` [Compound I-38]: 10 to 100 nM; for `COc1cccc(C(=O)Nc2ccc3c(c2)CCN3c2ncc(C(=O)NC3(C(=O)O)CCCCC3)c(C(F)(F)F)n2)c1` [Compound I-39]: 10 to 100 nM. In the case of `COc1cccc(CNc2ccc3c(c2)CCN3c2ncc(C(=O)NC3(C(=O)O)CCCCC3)c(C(F)(F)F)n2)c1` [Compound I-40], the EC50 is below 10 nM.

As for `O=C(NC1(C(=O)O)CCCCC1)c1cnc(N2CCc3cc(OC4CCN(c5ccccn5)CC4)ccc32)nc1C(F)(F)F` [Compound I-41], the EC50 was below 10 nM. The same measure, in the same setting: the same measure for `O=C(NC1(C(=O)O)CCCCC1)c1cnc(N2CCc3cc(OC4CCN(c5nccs5)CC4)ccc32)nc1C(F)(F)F` [Compound I-42]: below 10 nM. Same read-out and setting: as for `Cc1nsc(COc2ccc3c(c2)CCN3c2ncc(C(=O)NC3(C(=O)O)CCCCC3)c(C(F)(F)F)n2)n1` [Compound I-43], the figure is 10 to 100 nM; as for `O=C(NC1(C(=O)O)CCCCC1)c1cnc(N2CC3(CC3)c3cc(OCCC4CCOCC4)ccc32)nc1C(F)(F)F` [Compound I-44], 10 to 100 nM; as for `O=C(NC1(C(=O)O)CCC1)c1cnc(N2CCc3cc(OC4CCN(c5ncccn5)CC4)ccc32)nc1C(F)(F)F` [Compound I-46], 10 to 100 nM. On the same count and under the same terms, the same measure for `O=C(NC1(C(=O)O)CCOCC1)c1cnc(N2CCc3cc(OC4CCN(c5ncccn5)CC4)ccc32)nc1C(F)(F)F` [Compound I-47]: 10 to 100 nM; for `O=C(NC1(C(=O)O)CCCC1)c1cnc(N2CCc3cc(OC4CCN(c5ncccn5)CC4)ccc32)nc1C(F)(F)F` [Compound I-48]: below 10 nM. Consider `O=C(NC1(C(=O)O)CCC(F)(F)CC1)c1cnc(N2CCc3cc(OC4CCN(c5ncccn5)CC4)ccc32)nc1C(F)(F)F` [Compound I-49], for which the EC50 lay within 10 to 100 nM. Regarding `O=C(NC1(C(=O)O)CCCCC1)c1cnc(N2CCc3cc(OC4CCN(c5cccnc5)CC4)ccc32)nc1C(F)(F)F` [Compound I-51], the EC50 is 10 to 100 nM. On the same count and under the same terms, as for `O=C(NC1(C(=O)O)CCCCC1)c1cnc(N2CCc3cc(OCCNc4ncccn4)ccc32)nc1C(F)(F)F` [Compound I-52], the figure is 10 to 100 nM; as for `CC1(C)CN(c2ncc(C(=O)NC3(C(=O)O)CCCCC3)c(C(F)(F)F)n2)c2ccc(OCCC3CCOCC3)cc21` [Compound I-54], below 10 nM; as for `O=C(NC1(C(=O)O)CCCCC1)c1cnc(N2CC3(CCCCC3)c3cc(OCCC4CCOCC4)ccc32)nc1C(F)(F)F` [Compound I-55], below 10 nM. For the compound `CCc1nc(COc2ccc3c(c2)CCN3c2ncc(C(=O)NC3(C(=O)O)CCCCC3)c(C(F)(F)F)n2)cs1` [Compound I-59], the EC50 was in the range of 10 to 100 nM. Same read-out and setting: as for `O=C(NC1(C(=O)O)CCCCC1)c1cnc(N2CC3(CCN(C(=O)OCc4ccccc4)CC3)c3cc(OCCC4CCOCC4)ccc32)nc1C(F)(F)F` [Compound I-61], the figure is below 10 nM; as for `CC(=O)N1CCC(Oc2ccc3c(c2)CCN3c2ncc(C(=O)NC3(C(=O)O)CCCCC3)c(C(F)(F)F)n2)CC1` [Compound I-64], 100 to 5000 nM. Regarding `CC(C)C(=O)N1CCC(Oc2ccc3c(c2)CCN3c2ncc(C(=O)NC3(C(=O)O)CCCCC3)c(C(F)(F)F)n2)CC1` [Compound I-65], the EC50 lay within 10 to 100 nM. On the same count and under the same terms, the same measure for `O=C(NC1(C(=O)O)CCCCC1)c1cnc(N2CCc3cc(NC4CCN(c5ncccn5)CC4)ccc32)nc1C(F)(F)F` [Compound I-67]: 10 to 100 nM.

Staying with this assay, now noted: inhibitory effect against RSV type A (RSV A2 strain), HEp-2 cells, CPE inhibition; read-out: EC50.
For `CC1CN(c2ncccn2)CCC1Oc1ccc2c(-c3ncc(C(=O)NC4(C(=O)O)C5CC6CC(C5)CC4C6)c(C(F)(F)F)n3)cn(C3CCC(F)(F)CC3)c2c1` (single isomer, unassigned) [Compound I-405], the EC50 is below 10 nM. For `COC1CCC(n2cc(-c3ncc(C(=O)NC4(C(=O)O)C5CC6CC(C5)CC4C6)c(C(F)(F)F)n3)c3ccc(OC4CCN(c5ncc(F)cn5)CC4)cc32)CC1` (single isomer, unassigned) [Compound I-424], the EC50 is below 10 nM. As to `O=C(NC1(C(=O)O)C2CC3CC(C2)CC1C3)c1cnc(-c2cn(C3CCC(F)CC3)c3cc(O[C@H]4CC[C@H](N5CC(F)(F)C5)CC4)ccc23)nc1C(F)(F)F` (single isomer, unassigned) [Compound I-510], the EC50 was below 10 nM. On the same count and under the same terms, the same measure for `CC(F)(F)c1nc(-c2cn(C3CCC(F)CC3)c3cc(O[C@H]4CC[C@H](N5CC(F)(F)C5)CC4)ccc23)ncc1C(=O)NC1(C(=O)O)C2CC3CC(C2)CC1C3` (single isomer, unassigned) [Compound I-571]: below 10 nM. Same read-out and setting: the same measure for `O=C(NC1(C(=O)O)C2CC3CC(C2)CC1C3)c1ccc(-c2cn(C3CCC(F)CC3)c3cc(O[C@H]4CC[C@H](N5CC(F)(F)C5)CC4)ccc23)nc1C(F)(F)F` (single isomer, unassigned) [Compound I-584]: below 10 nM. Same read-out and setting: as for `COc1ccc2c(c1)CCN2c1ncc(C(=O)NC2(C(=O)O)C3CC4CC(C3)CC2C4)c(C(F)(F)F)n1` (stereo not shown) [Compound I-68], the figure is 10 to 100 nM.
